Tests used:
S. mansoni TGR = target: T1, S. mansoni TGR (Schistosoma mansoni, UniProt Q962Y6); experiment: S. mansoni TGR enzyme inhibition (DTNB reduction); format: biochemical; settings: TGR
T1 construct: made in house
T1 sequence (Q962Y6 1-598): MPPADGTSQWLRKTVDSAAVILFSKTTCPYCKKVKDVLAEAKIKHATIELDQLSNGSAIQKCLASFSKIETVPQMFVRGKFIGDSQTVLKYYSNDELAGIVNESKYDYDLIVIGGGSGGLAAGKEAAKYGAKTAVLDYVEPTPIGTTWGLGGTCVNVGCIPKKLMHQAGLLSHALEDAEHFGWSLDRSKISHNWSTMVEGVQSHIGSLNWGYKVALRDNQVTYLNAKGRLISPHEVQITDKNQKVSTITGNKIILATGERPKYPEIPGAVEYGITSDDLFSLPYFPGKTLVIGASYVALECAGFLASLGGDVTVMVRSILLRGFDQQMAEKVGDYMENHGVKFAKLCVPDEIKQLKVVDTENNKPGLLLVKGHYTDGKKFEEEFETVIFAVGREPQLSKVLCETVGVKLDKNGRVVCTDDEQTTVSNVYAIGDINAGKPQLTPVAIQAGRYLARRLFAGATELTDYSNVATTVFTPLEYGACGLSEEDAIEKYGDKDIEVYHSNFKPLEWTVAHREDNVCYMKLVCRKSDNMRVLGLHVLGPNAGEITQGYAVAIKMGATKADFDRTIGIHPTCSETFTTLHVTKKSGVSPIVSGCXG
Description: Recombinant TGR, human TrxR1, B. malayi (Bm)TrxR and human GR proteins were expressed and purified as described[20],[69],[79]. The codon optimized sequence for P. falciparum (PfTrxR, https://www.ncbi.nlm.nih.gov/protein/CAA60574.1/) with an N-terminal 6-His tag was synthesized and inserted into pET15b (GenScript) and expressed in BL21 (DE3) cells and purified as described for human GR[20]. TGR and TrxR enzyme inhibition assays were performed in triplicate at 25 °C as described[20] in 0.1 M potassium phosphate (pH 7.4), 10 mM EDTA, 100 µM NADPH and 0.01% Tween-20. […] The reaction was started with addition of an equal volume of DTNB (6 mM) and NADPH (100 µM) and the increase in A412 during the first 3 min was recorded. […] The reaction was preincubated for 15 min. Activity was initiated with the addition of 1 mM GSSG and 100 μM NADPH and initial rates of NADPH oxidation were monitored at 340 nm. The reactions were done in triplicate. The IC50 was calculated in GraphPad Prism.

Human GR = target: T2, Human GR (Homo sapiens, UniProt P00390); experiment: Human GR enzyme inhibition (GSSG reduction, NADPH oxidation); format: biochemical; settings: hGR
T2 construct: made in house
T2 sequence (P00390 44-522): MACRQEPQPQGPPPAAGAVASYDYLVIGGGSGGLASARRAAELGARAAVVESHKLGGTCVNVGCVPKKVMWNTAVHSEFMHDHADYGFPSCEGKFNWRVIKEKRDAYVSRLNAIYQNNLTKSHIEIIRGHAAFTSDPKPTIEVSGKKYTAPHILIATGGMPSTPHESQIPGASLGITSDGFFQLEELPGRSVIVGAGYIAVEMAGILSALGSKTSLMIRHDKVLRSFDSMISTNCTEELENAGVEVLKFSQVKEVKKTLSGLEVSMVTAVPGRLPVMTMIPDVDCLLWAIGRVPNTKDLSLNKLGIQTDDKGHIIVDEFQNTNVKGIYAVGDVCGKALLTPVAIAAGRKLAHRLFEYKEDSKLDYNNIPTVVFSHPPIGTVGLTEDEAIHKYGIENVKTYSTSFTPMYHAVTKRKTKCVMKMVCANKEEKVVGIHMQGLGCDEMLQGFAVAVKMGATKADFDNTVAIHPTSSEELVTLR
Description: Recombinant TGR, human TrxR1, B. malayi (Bm)TrxR and human GR proteins were expressed and purified as described[20],[69],[79]. The codon optimized sequence for P. falciparum (PfTrxR, https://www.ncbi.nlm.nih.gov/protein/CAA60574.1/) with an N-terminal 6-His tag was synthesized and inserted into pET15b (GenScript) and expressed in BL21 (DE3) cells and purified as described for human GR[20]. TGR and TrxR enzyme inhibition assays were performed in triplicate at 25 °C as described[20] in 0.1 M potassium phosphate (pH 7.4), 10 mM EDTA, 100 µM NADPH and 0.01% Tween-20. TGR, human TrxR1 and BmTrxR (all at 4 nM) and PfTrxR (50 nM) were preincubated with the compounds for 15 min. The reaction was started with addition of an equal volume of DTNB (6 mM) and NADPH (100 µM) and the increase in A412 during the first 3 min was recorded. […] […] Activity was initiated with the addition of 1 mM GSSG and 100 μM NADPH and initial rates of NADPH oxidation were monitored at 340 nm. The reactions were done in triplicate. The IC50 was calculated in GraphPad Prism.

[1] = system: S. mansoni newly transformed schistosomula (NTS); experiment: Schistosomicidal activity ex vivo, NTS (Cell Titer Glo); format: cell-based; settings: S. mansoni NTS
Description: Oncomelania hupensis subsp. hupensis, Chinese strain, infected with S. japonicum, Chinese strain, and Biomphalaria glabrata, strain NMRI, infected with S. mansoni, strain NMRI, were provided by the NIAID Schistosomiasis Resource Center for distribution through BEI Resources, NIAID, NIH. After infections were patent, snails were exposed to bright light for 1 hr to obtain cercariae. Cercariae were mechanically transformed to schistosomula. Briefly, cercariae were placed on ice for 30 min and then centrifuged at 350 × g for 10 mins. The supernatant was decanted and 2 ml of serum-free M199 medium was added to cercarial pellets and vortexed for 1 min until cercarial tails were detached. NTS were purified by layering on 4 °C Percoll gradient suspension containing Eagle’s minimum essential medium, penicillin-streptomycin (10,000 U per ml penicillin/10,000 U per ml streptomycin), and 1 M HEPES in 0.85% NaCl with cercariae suspension and centrifuged at 500 × g for 15 min. Cercarial pellets were resuspended and washed thrice in serum-free M199 medium and collected at 100 × g for 5 min. NTS (240) were transferred to U-bottom 96 well assay plates containing 200 µl of M199 medium supplemented with 5.5 mM D-glucose, penicillin-streptomycin and 5% heat inactivated fetal bovine serum and incubated at 37 °C in a 5% CO2 incubator overnight.
DMSO formulated compounds were diluted with phenol red free M199 medium or RPMI medium for NTS or juvenile and adult worms, respectively, at <1% DMSO final concentrations. NTS, juvenile and adult worms from overnight cultures were tested against compounds in triplicate. Controls were treated with DMSO alone or 5 µM AF as a positive control in appropriate medium. Worm viability was assessed at 24 or 72 h by measuring ATP content of worms using Cell Titer Glo Assay (Promega) as described. Schistosome viabilities in the presence of the compounds were assessed using this formula: % Viability = Averages of Test / Averages of DMSO Control x 100.

Vero cells = experiment: Cytotoxicity in mammalian cells (Cell Titer Glo); format: cell-based; settings: Vero cells
Description: Following overnight incubation, formulated DMSO-compound stock solutions were diluted with DMEM at <1% DMSO final concentrations. […] Vero cells treated similarly with different concentrations of PZQ, MZM and AF (Cayman Chemicals) were used as positive controls.

[2] = 15 minutes pre-incubation, compound 15 µM
[3] = 15 minutes pre-incubation, compound 30 µM
[4] = 15 minutes pre-incubation, compound 66.7 µM
[5] = 6 hours pre-incubation, compound 15 µM
[6] = 6 hours pre-incubation, compound 30 µM
[7] = 6 hours pre-incubation, compound 66.7 µM

`Cc1oc(C2CCCCC2)nc1CN[C@@H]1C[C@@H]2C[C@H]([C@H]1C)C2(C)C` [C4] was tested. Which “% inhibition” value (S. mansoni TGR; [2]) did it give?
Its value is 4.307%.

What about the “% inhibition” value (S. mansoni TGR; [3]) of the same molecule?
Its value is 7.284%.

What about the “% inhibition” value (S. mansoni TGR; [4]) of the same molecule?
Its value is 12.4488%.

And the “% inhibition” value (S. mansoni TGR; [5])?
The value was 20.5703%.

And the “% inhibition” value (S. mansoni TGR; [6])?
The value was 43.128%.

What about the “% inhibition” value (S. mansoni TGR; [7]) of the same molecule?
Its value is 68.6238%.

What about the “% inhibition” value (Human GR; [2]) of the same molecule?
Its value is -0.5314%.

What about the “% inhibition” value (Human GR; [3]) of the same molecule?
Its value is -1.471%.

What about the “% inhibition” value (Human GR; [4]) of the same molecule?
The value was -0.894%.

And the “% inhibition” value (Human GR; [5])?
Its value is -2.859%.

What about the “% inhibition” value (Human GR; [6]) of the same molecule?
Its value is -0.4408%.

What about the “% inhibition” value (Human GR; [7]) of the same molecule?
Its value is -0.3554%.

What about the “% viability” value ([1]; Conc. 1 µM) of the same molecule?
Its value is 51.9254%.

What about the “% viability” value ([1]; Conc. 5 µM) of the same molecule?
The value was 22.4326%.

And the “% viability” value ([1]; Conc. 15 µM)?
The value was 2.552%.

What about the “% viability” value ([1]; Conc. 30 µM) of the same molecule?
Its value is 0.3078%.

What about the “% viability” value ([1]; Conc. 50 µM) of the same molecule?
The value was 0.1166%.

And the “% viability” value (Vero cells; Conc. 5 µM)?
The value was 99.7864%.

And the “% viability” value (Vero cells; Conc. 10 µM)?
The value was 99.8193%.

What about the “% viability” value (Vero cells; Conc. 25 µM) of the same molecule?
The value was 95.3884%.

What about the “% viability” value (Vero cells; Conc. 35 µM) of the same molecule?
Its value is 94.379%.

What about the “% viability” value (Vero cells; Conc. 50 µM) of the same molecule?
Its value is 91.2714%.

— paper PMC10287695, “Non-covalent inhibitors of thioredoxin glutathione reductase with schistosomicidal activity in vivo” (Nature Communications, 2023)
